# Tests used:
# human islet cells [1] = assay: Initial characterization of human islets cultured 24 hours (Example 1); type: cell-based; details: AAGP 3 mg/mL
# Experimental: Research-grade human islet preparations are cultured for 24 hours in the following groups: • 1) AAGP™ supplemented islets cells; and • 2) Controls (non-supplemented islets cells).
# Islets are cultured in humidified atmosphere of 95% air and 5% CO2 at 37° C., at a density of 200 IE/mL using standard tissue culture flask. The AAGP™ concentration is 3 mg/mL. Several tests are conducted on day 1 post-islet isolation, including: Islet recovery, membrane integrity viability stain (Syto® EB) as well as Glucose-Stimulated Insulin Release.
# human islets [2] = assay: Extracellular ROS in culture media, Acridan Lumigen PS-3 assay; type: cell-based; details: media 24 hr after tacrolimus exposure, ± AAGP
# Experimental: Frozen samples from all groups are utilized to determine reactive oxygen species (ROS) in the culture media, using the Acridan Lumigen™ PS-3 assay (Amershan ECL Plus kit, Fisher Scientific Inc. Ottawa, ON, Canada) (18). In this assay Acridan Lumigen™ PS-3 is excited by reactive oxygen and nitrogen species (RNS) in the presence of hydrogen peroxide, producing chemiluminescense at 430 nm. Media samples are flash-frozen with liquid nitrogen and stored until the assay is performed. CMRL culture media alone is used as a control, and results are expressed as fold-change increase compared to the control media.
# [3] = Solubility and stability of AAGP in media; type: physicochemical
# human islets [4] = assay: Intra-islet calcium concentration; type: cell-based; details: Tac−, Tac+AAGP groups
# Experimental: Various electrophysiology studies were performed on human islets to elucidate a potential mechanism of action for the AAGP™ by characterizing the CNI-related injury and its avoidance.
# human islets [5] = assay: Viability by fluorescent membrane integrity assay (syto green/ethidium bromide); type: cell-based; details: AAGP 3 mg/mL, 24 hr culture, vs non-supplemented control
# Experimental: After 24 hr of culture, islets are assessed for recovery, viability and function. Recovery rate is calculated as the percentage of surviving islets after 24 hr culture in comparison to the initial count for each condition. Viability is assessed using a fluorescent membrane integrity assay with counter-stains syto green/ethidium bromide (Cedarlane Laboratories, Burlington, ON, and Sigma-Aldrich, ON) (Islet isolation for clinical transplantation. In: Shahidul. M, (ed). The islets of Langerhans. New York: Springer, 2010; Ranuncoli A, et al. Cell transplantation 2000; 9(3):409-414; Ricordi C. et al. Acta diabetologica latina 1990; 27(3):185-195; and Barnett M J et al. Cell transplantation 2004; 13(5):481-488).
# human islet cells [6] = assay: Protection of human islets from tacrolimus toxicity (Example 2); type: cell-based; details: AAGP 3 mg/mL
# Experimental: Research-grade human islet preparations are cultured for 48 hours in the following groups: • 1) No tacrolimus (Tac−) treated beta islet cells; • 2) Tracrolimus (Tac+) treated beta islet cells; and • 3) Tacrolimus (Tac+) treated+AAGP™ supplementation beta islet cells.
# After 48 h, tacrolimus ([…]) was added to group 2 and 3.
# Islets are cultured in humidified atmosphere of 95% air and 5% CO2 at 37° C., at a density of 200 IE/mL using standard tissue culture flask. AAGP™ concentration is 3 mg/mL. Several tests are conducted on D1 post-islet isolation, including: Islet recovery, membrane integrity viability stain (Syto EB) as well as Glucose-stimulated Insulin Release.
# mouse splenocytes = assay: Allogeneic mixed lymphocyte reaction, T cell proliferation by CFSE staining; type: cell-based; details: vs IgG control, n=4
# Excerpt: The assay measures T cell proliferative response by levels of CFSE staining.
# human islets [7] = assay: Glucose-stimulated insulin secretion (GSIS) perifusion assay; type: cell-based; details: AAGP 3 mg/mL, 24 hr culture
# Experimental: Islet secretory function is assessed by monitoring in vitro insulin secretory profile during continuous glucose stimulation, as described by Cabrera et al Cell transplantation 2008;16(10):1039-1048. This in vitro perifusion assay is a modality of continuous Glucose-Stimulated Insulin Secretion (GSIS) test to stress islets in alternating normoglycemic and hyperglycemic environment to model physiological islet response. Supernatants from the perifusion assay are collected and insulin levels are determined using a commercially available ELISA kit (Insulin ELISA kit. Mercodia Inc. Pittsburgh, PA, USA). Results are expressed as fold-change of insulin secretion compared to the low (2.8 mMol) glucose stimulation baseline, normalized for 100 IEQ.
# [8] = test system: syngeneic islet transplant; assay: Syngeneic full mass islet transplant with continuous tacrolimus treatment; type: in vivo, mouse; details: AAGP in culture media 1 hour prior to transplant; tacrolimus 1 mg/kg/day by osmotic pump
# Excerpt: FIG. 11 illustrates the post-transplant graft function in immunodefficient mice receiving minimal human islet mass (˜1000 IEQ). Islets were previously treated with AAGP™ and tracrolimus accordingly. […] The dotted line indicates graft recovery nephrectomy on day 60. B. Intraperitoneal glucose tolerance test (IPGTT) to evaluate metabolic response after receiving a glucose bolus. C. Insulin content of removed grafts after 60 days of transplant as an indication of residual islet mass. Data points represent mean±SEM adjusted per gram of tissue, (Tac− n=6, Tac+ n=3 and Tac+AAGP™ n=7), *p<0.05, **p<0.01 and ***p<0.001. D and E. Post-transplant graft function in mice receiving syngeneic full mass (˜500 IEQ) islet transplant. AAGP™ was added to the culture media 1 hour prior to transplant and tacrolimus was administered via a subcutaneous osmotic pump (implanted during the same procedure) at a continuous rate of 1 mg/kg/day. D. Pooled blood glucose profiles of animal over 40 days with clear dysfunction for Tac+ islets during the presence of Tac. Vertical dotted line indicates tacrolimus treatment cessation and marks a gradual recovery of Tac+ grafts. Horizontal continuous line at y=11 indicates the normoglycemia limit. Graft recovery nephrectomy was again performed on day 30. E. Mean time-to-euglycemia after transplant showing Tac+AAGP™ mice reversing diabetes earlier (p<0.001, log-rank, Mantel-cox test). […] These differences were not observed in the Tac+AAGP™ group.
# To further support these findings a transplant experiment was performed in a syngeneic diabetic mouse transplant model with continuous treatment with tacrolimus to resemble clinical practice.
# To make our experiments more clinically relevant, a new in vivo syngeneic mouse transplant model was performed, with tacrolimus as a continuous treatment by means of a subcutaneous osmotic pump. It was observed that the functional impairment of transplanted islets occurred immediately after starting administration of the CNI and lasted during the entire treatment period (7 days).
# human islets [9] = assay: Kidney subcapsular minimal mass islet transplant in Rag1 mice (Example 3); type: in vivo, immunodeficient mice (Rag1); details: ~1000 IEQ, islets cultured 24 h with AAGP 3 mg/mL, n=4 & 5
# Experimental: Two research-grade human islet preparations are cultured for 24 hours in the following groups: • 1) AAGP™+ supplemented islets cells; and • 2) Control (non-supplemented islets)
# Islets are cultured in humidified atmosphere of 95% air and 5% CO2 at 37° C., at a density of 200 IE/mL using standard tissue culture flask. AAGP™ concentration is 3 mg/mL. After 24 h, kidney subcapsular islet transplant is performed on immunodeficient mice (Rag1) with minimal islet mass (˜1000 IEQ) to assess transplant efficacy (n=4 & 5, control and AAGP™ respectively).
smiles,measurement,setting,value
C[C@H](NC(=O)[C@H](C)NC(=O)[C@@H](N)CCCCNC(=O)C(F)(F)C1(O)O[C@H](CO)[C@H](O)[C@H](O)[C@H]1O)C(=O)O (stereo partly shown) [AAGP™],toxicity on human islet cells,human islet cells [1],no toxicity
same,islet survival in culture,human islet cells [1]; 24 hours,seems to enhance islet survival in culture
same,extracellular ROS (fold-increase vs control media),human islets [2],ameliorated
same,solubility,[3]; all media,highly soluble in all media
same,stability,[3]; compared to natural AFP,more stable
same,calcium concentration in islets,human islets [4],neither tacrolimus nor AAGP™ affected the calcium concentration
same,cellular viability per membrane integrity assay,human islets [5],no differences in cellular viability
same,protection of islets exposed to tacrolimus in vitro,human islet cells [6],protects islet exposed to tacrolimus in vitro
same,T cell proliferation (CD8+ and CD4+),mouse splenocytes,no significant decrease in proliferation of T cells
same,insulin secretion during the second secretory phase (perifusion curves),human islets [7]; vs control,significant increase in insulin secretion
same,GSIS perifusion area under the curve (insulin release),human islets [7]; control 75.5±0.5,149.5±0.5
same,graft function / period to achieve euglycemia,[8],period to achieve euglycemia was similar to the control group
same,transplant outcome with minimal islet mass,human islets [9],inconclusive
